{"source": "patent US12590100B2", "about": "“Tetrahydro-spiroindoline-pyrrolopyrrole-triones inhibitors of the NRF2-β-TrCP interaction for use in the treatment of fatty liver disease” (Universidad Autonoma De Madrid, priority 2021, dated 2026)", "key": {"[1]": {"tested_on": "cell viability", "experiment": "MTT assay of cell viability/toxicity", "type": "cell-based", "settings": "all doses used"}, "[2]": {"tested_on": "NRF2", "experiment": "HO-1 induction in Nrf2−/− versus Nrf2+/+ MEFs", "type": "cell-based, mouse", "experimental": "FIG. 5. PHAR-mediated NRF2 activation is independent of KEAP1 and is responsible for the increase in the expression of its targets. (A-D) Serum-deprived MEFs originating from wild-type (WT) or KEAP1 null (Keap1−/−) mice were treated with 10 μM of PHAR for the indicated times. 0.1% DMSO was used as a vehicle. A), representative immunoblots of NRF2, HO1, KEAP1, LAMINB, and GAPDH as loading controls. B) and C), densitometric analysis of NRF2 and HO1 protein levels of the representative immunoblots of (A), expressed as a ratio of NRF2/LAMINB or HO1/GAPDH. The data is depicted as means±SEM (n=3). Statistical analysis was performed with two-way ANOVA followed by the Bonferroni test to check inter-group differences. D), the mRNA levels of Hmox-1, Nqo1, Aox1, Gc1c, and Gc1m were determined after 8 h of 10 μM PHAR by means of qRT-PCR and normalized by means of average Gapdh, Tbp, and β-actin. The data is depicted as mean±SEM (n=3). Statistical analysis was performed with two-way ANOVA followed by the Bonferroni test to check inter-group differences. *p<0.05; **p<0.01; ***p<0.001 vs. 0 of MEF-WT. (E-H), Serum-deprived MEFs from wild-type (WT) or NRF2 null (Nrf2−/−) mice were subjected to 10 μM of PHAR for the indicated times. 0.1% DMSO was used as a vehicle. E), representative immunoblots of NRF2, HO1, KEAP1, LAMINB, and GAPDH as loading controls. F) and G), densitometric analysis of NRF2 and HO1 protein levels of the representative immunoblots of (E), expressed as a ratio of NRF2/LAMINB or HO1/GAPDH. […] H), the mRNA levels of Hmox-1, Nqo1, Aox1, Gclc, and Gclm were determined after 8 h of 10 μM PHAR by means of qRT-PCR and normalized by means of average Gapdh, Tbp, and β-actin. […]\nFrom a viewpoint of biopharmaceutical usefulness, it is important to determine if PHAR acts on KEAP1/NRF2 interaction, or if it represents, in contrast, a novel approach directed specifically at β-TrCP/NRF2 interaction. […] As an additional control, the HO-1 levels in MEFs originating from NRF2 knock-out (Nrf2^−/−) and wild-type (Nrf2^+/+) mice from the same litter were analyzed by immunoblot. […]"}, "[3]": {"tested_on": "STAM mice (NAFLD)", "experiment": "STAM fatty liver model, treatment from steatosis stage (week 6)", "type": "in vivo, mouse", "experimental": "FIG. 12. PHAR decreases the inflammatory response in mice subjected to fatty liver in the STAM model. The STAM model is based on the induction of non-alcoholic fatty liver (NAFLD) generated by the subcutaneous injection of streptozotocin (STZ) in neonatal C57BL/6J mice (2-5 days old) followed by a high-fat diet administered from 4 weeks of age. In this case, we treated mice in the steatosis stage (week 6), 5 days a week with an IP administration of 50 mg/kg in order to analyze if PHAR prevents progression to the next stage (NASH). A), H&E staining of liver from PHAR-treated and untreated STAM mice. Histochemical lipid staining with oil red was used to visualize the amount of liver fat. B), normalized quantification of the amount of liver fat per mouse, measured by MRI, on the last day of treatment. C), representative MRI profiles of one mouse liver of each group. The peak that appears at an approximate frequency of 4.7 ppm corresponds to the water molecule (the majority), while the rest of the peaks give information on the amount of liver fat. The ratio of the sum of the fat peaks to water indicates the total liver fat content. D), mRNA levels of several genes involved in fatty acid metabolism (Cpt1a, Scd1, Cd36 and Fasn). E), the mRNA levels of the pro-inflammatory (Tnf, Il6 and Infg) and anti-inflammatory (Il10 and Il4) cytokines were determined by qRT-PCR and were normalized by the average of Gapdh, Tbp and β-actin. Statistical analysis was performed using a Student's t test to compare the differences between PHAR-treated mice vs vehicle-treated mice. *p<0.05; **p<0.01.\nAs previously described, the STAM model is a murine model used for the study of non-alcoholic fatty liver disease (NAFLD), as well as for the search of new effective treatments. This model is generated by the subcutaneous injection of streptozotocin (STZ) in 2-5 day old neonatal C57BL/6J mice followed by a high-fat diet, administered after 4 weeks of age. STZ produces a pancreatic lesion that leads to the appearance of hyperglycemia that, together with the high-fat diet, gradually leads to different stages of progressive liver damage: steatosis (week 6 post-STZ injection); Inflammatory NASH (week 8); NASH fibrosis (week 10) and, finally, hepatocarcinoma (week 16). The pathogenesis of NAFLD is closely related to the appearance of reactive oxygen species, chronic low-grade inflammation, and changes in lipid metabolism. For this reason, we determined whether PHAR, as an inducer of NRF2, could attenuate the inflammatory response. Specifically, we treated mice in the steatosis stage (week 6), 5 days a week with an IP administration of 50 mg/kg in order to analyze if it prevents progression to the next stage (NASH). […] Altogether, we conclude that PHAR slows down the accumulation of fat and, therefore, prevents the appearance of NASH."}, "[4]": {"settings": "STAM mice from week 6, IP 50 mg/kg 5 days a week"}}, "data": [{"smiles": "O=C1[C@@H]2[C@H](Cc3c[nH]c4ccccc34)N[C@]3(C(=O)Nc4ccc(Cl)cc43)[C@@H]2C(=O)N1c1ccc2c(c1)OCCO2", "note": "[PHAR]", "values": [{"measurement": "toxicity (cell viability, MTT)", "setting": "[1]", "result": "does not present toxicity at any of the doses used"}, {"measurement": "HO-1 increase in MEFs from Nrf2−/− mice", "setting": "[2]; PHAR 10 μM, 2, 4, 8 h", "result": "not observed"}, {"measurement": "HO-1 levels in MEFs from Nrf2+/+ mice", "setting": "[2]; PHAR 10 μM, 2, 4, 8 h", "result": "significant increase in HO-1"}, {"measurement": "mRNA levels of NRF2 targets in Nrf2+/+ and Nrf2−/− MEFs", "setting": "[2]; PHAR 10 μM, 8 h", "result": "The same result was obtained"}, {"measurement": "accumulated liver fat (oil red)", "setting": "[3]; [4]", "result": "significantly decreased the amount of accumulated liver fat"}, {"measurement": "liver fat quantity by MRI at the end of treatment", "setting": "[3]; [4]", "result": "slows the accumulation of liver fat"}, {"measurement": "expression of anti-inflammatory cytokines Il10 and Il4", "setting": "[3]; STAM mice from week 6, liver", "result": "to increase the anti-inflammatory cytokines"}, {"measurement": "expression of pro-inflammatory cytokines Tnf, Il6, Infg", "setting": "[3]; STAM mice from week 6, liver", "result": "tendency to decrease"}, {"measurement": "fatty acid synthesis, Fasn expression (mRNA)", "setting": "[3]; STAM mice from week 6, liver", "result": "decreasing of Fasn"}, {"measurement": "lipid catabolism, expression of Cpt1a (mRNA)", "setting": "[3]; STAM mice from week 6, liver", "result": "increase in lipid catabolism"}]}]}
